Data as given in patent publication US9475798B2, “Azetidine estrogen receptor modulators and uses thereof” (Genentech, Inc., priority 2013, dated 2016).
Like-named read-outs stand apart in the source and are kept apart here.

What was measured:
MCF-7 cells = assay: Breast Cancer Cell Viability Assay (MCF7, CellTiter-Glo); details: for MCF7 Viability Assay: % Viability relative to Fulvestrant: 5 days, 100-{100*[(100-% viability of Example)/(100-% viability of Fulvestrant)]};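 for all read-outs here: CellTiter-Glo luminescence read-out, background from cell-free medium subtracted, viability expressed against untreated cells, ten-point 1:5 compound dilution series spanning 10 to 0.000005 µM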
ER-α = biological target: T1, ER-α (Homo sapiens, UniProt P03372); assay: Breast Cancer Cell ER-α In-Cell Western Assay (SP1); type: cell-based; details: MCF7 cells, 4 hours; 100-{100*[(100-% ER level of Example)/(100-% ER level of Fulvestrant)]}
T1 construct: endogenous in cells; host or cells: MCF7
T1 sequence (P03372 1-595): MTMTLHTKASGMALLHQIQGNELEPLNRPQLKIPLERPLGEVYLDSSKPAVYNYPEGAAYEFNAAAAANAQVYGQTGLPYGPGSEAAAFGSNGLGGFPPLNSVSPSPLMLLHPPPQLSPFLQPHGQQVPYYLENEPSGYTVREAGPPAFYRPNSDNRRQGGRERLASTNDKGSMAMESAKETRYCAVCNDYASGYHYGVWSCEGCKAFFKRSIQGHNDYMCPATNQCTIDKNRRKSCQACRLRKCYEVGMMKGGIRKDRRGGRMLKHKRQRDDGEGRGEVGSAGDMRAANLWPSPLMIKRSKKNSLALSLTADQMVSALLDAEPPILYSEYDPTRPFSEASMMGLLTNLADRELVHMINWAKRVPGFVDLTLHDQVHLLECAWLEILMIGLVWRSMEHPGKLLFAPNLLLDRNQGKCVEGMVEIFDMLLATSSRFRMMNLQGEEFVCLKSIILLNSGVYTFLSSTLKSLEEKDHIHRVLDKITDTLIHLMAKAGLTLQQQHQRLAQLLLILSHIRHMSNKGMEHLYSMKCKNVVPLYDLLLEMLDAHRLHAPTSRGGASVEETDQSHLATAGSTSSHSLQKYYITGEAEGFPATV
Protocol: MCF7 cells were trypsinized and washed twice in Phenol Red Free RPMI containing 5% Charcoal Dextran Stripped serum with 20 mM HEPES and NEAA, then adjusted to a concentration of 200,000 cells per mL with the same medium. […] At 4 hours post compound addition, the cells were fixed by adding 16 μL of 30% formalin to the 32 μL of cells and compound (10% formalin final concentration) for 20 minutes. Cells were then washed twice with PBS Tween 0.1% and then permeabilized in PBS 0.1% Triton (50 μl/well) for additional 15 minutes. The PBS 0.1% triton was decanted, and the cells were washed: LI-COR blocking buffer (50 μL/well) was added, the plate was spun at 3000 rpm, and then the blocking buffer was decanted. Additional LI-COR blocking buffer (50 μL/well) was added, and the cells were incubated overnight at 4° C. The blocking buffer was decanted, and the cells were incubated overnight at 4° C. with SP1 (Thermo Scientific) anti-ER rabbit monoclonal antibody diluted 1:1000 in LI-COR blocking buffer/0.1% Tween-20. Wells which were treated with blocking buffer with Tween but no antibody were used as a background control. Wells were washed twice with PBS Tween 0.1% to remove free SP1 antibodies, and the cells were incubated at room temp for 60-90 minutes in LI-COR goat anti-rabbit IRDye™ 800 CW (1:1000) and DRAQ5 DNA dye (1:10000 of 5 mM stock solution) diluted in LI-COR blocking buffer containing 0.1% Tween-20 and 0.01% SDS. Cells were then washed with 0.1% Tween-20/PBS three times. Plates were scanned on a LI-COR Odyssey infrared imaging system. Integrated intensities in the 800 nm channel and 700 nm channel were measured to determine levels of ER-α and DNA respectively. Percent ER levels were determined as follows: (Integrated intensity 800 nm sample/integrated intensity 700 nm sample)/(Integrated intensity 800 nm untreated cells/integrated intensity 700 nm untreated cells)×100=% ER-α levels.

[1] = read-out: MCF7 Viability Assay IC50, 5 days' compound exposure

SMILES	IC50 (MCF-7 cells; [1])	ER-α In-Cell Western Assay (SP1): % ER-α remaining relative to Fulvestrant (ER-α)	IC50 (MCF-7 cells; read-out: MCF7 Viability Assay IC50, 5 days' compound exposure, cell printed without unit)	MCF7 Viability Assay: % Viability relative to Fulvestrant (MCF-7 cells)
CC1=C(c2ccc(F)c(F)c2)C(c2ccc(OC[C@H](C)N3CC[C@@H](C)C3)cc2)Oc2ccc(O)cc21 (stereo partly drawn) [3-(3,4-difluorophenyl)-4-methyl-2-(4-((S)-2-((R)-3-methylpyrrolidin-1-yl)propoxy)phenyl)-2H-chromen-6-ol, reference compound]	0.7 nM	14%		19%
CC1=C(c2ccc(Cl)cc2)C(c2ccc(OC[C@H](C)N3CC[C@@H](C)C3)cc2)Oc2ccc(O)cc21 (stereo partly drawn) [3-(4-chlorophenyl)-4-methyl-2-(4-((S)-2-((R)-3-methylpyrrolidin-1-yl)propoxy)phenyl)-2H-chromen-6-ol, reference compound]	1.9 nM	15%		14%
CC1=C(c2ccc(F)cc2)C(c2ccc(OC[C@H](C)N3CC[C@@H](C)C3)cc2)Oc2ccc(O)cc21 (stereo partly drawn) [3-(4-fluorophenyl)-4-methyl-2-(4-((S)-2-((R)-3-methylpyrrolidin-1-yl)propoxy)phenyl)-2H-chromen-6-ol, reference compound]	0.4 nM	18%		17%
CC1=C(c2ccc(C#N)cc2)C(c2ccc(OC[C@H](C)N3CC[C@@H](C)C3)cc2)Oc2ccc(O)cc21 (stereo partly drawn) [4-(6-hydroxy-4-methyl-2-(4-((S)-2-((R)-3-methylpyrrolidin-1-yl)propoxy)phenyl)-2H-chromen-3-yl)benzonitrile, reference compound]	10 nM			15%

Continued, in another order:

IC50 (MCF-7 cells; [1])	ER-α In-Cell Western Assay (SP1): % ER-α remaining relative to Fulvestrant (ER-α)	IC50 (MCF-7 cells; read-out: MCF7 Viability Assay IC50, 5 days' compound exposure, cell printed without unit)	SMILES	MCF7 Viability Assay: % Viability relative to Fulvestrant (MCF-7 cells)
26 nM			CC1=C(c2ccc(F)cc2)[C@@H](c2ccc(OCCN3CC(CF)C3)cc2)Oc2ccc(O)cc21 (single isomer, unassigned) [Example 2]	3%
	13%		CC1=C(c2ccc(F)cc2)[C@@H](c2ccc(OC[C@H](C)N3CC[C@@H](C)C3)cc2)Oc2ccc(O)cc21 [(R)-3-(4-fluorophenyl)-4-methyl-2-(4-((S)-2-((R)-3-methylpyrrolidin-1-yl)propoxy)phenyl)-2H-chromen-6-ol, reference compound]	
	16%	0.3 nM	CC1=C(c2ccc(F)cc2)[C@H](c2ccc(OC[C@H](C)N3CC[C@@H](C)C3)cc2)Oc2ccc(O)cc21 [(S)-3-(4-fluorophenyl)-4-methyl-2-(4-((S)-2-((R)-3-methylpyrrolidin-1-yl)propoxy)phenyl)-2H-chromen-6-ol, reference compound]	14%
0.36 nM			CC1=C(c2ccc(F)cc2)C(c2ccc(OCCN3CC(CF)C3)cc2)Oc2ccc(O)cc21 (stereo not shown) [Example 1, 2-(4-(2-(3-(Fluoromethyl)azetidin-1-yl)ethoxy)phenyl)-3-(4-fluorophenyl)-4-methyl-2H-chromen-6-ol]	3%
1.2 nM	3%		CC1=C(c2ccc(Cl)cc2)C(c2ccc(OCCN3CC(CF)C3)cc2)Oc2ccc(O)cc21 (stereo not shown) [Example 4, 3-(4-Chlorophenyl)-2-(4-(2-(3-(fluoromethyl)azetidin-1-yl)ethoxy)phenyl)-4-methyl-2H-chromen-6-ol]	3%
3.5 nM	2%		CC1=C(c2ccc(C#N)cc2)C(c2ccc(OCCN3CC(CF)C3)cc2)Oc2ccc(O)cc21 (stereo not shown) [Example 7, 4-(2-(4-(2-(3-(Fluoromethyl)azetidin-1-yl)ethoxy)phenyl)-6-hydroxy-4-methyl-2H-chromen-3-yl)benzonitrile]	0%
